We go through 25 compounds from patent publication US8088761B2, “Enzyme inhibitors” (Cancer Research Technology Limited, priority 2005, dated 2012).

Where only a bound is given, the exact number is not on record here.

The target in one experiment is T1, Aurora-A (Homo sapiens, UniProt O14965).
T1 sequence (O14965 1-403): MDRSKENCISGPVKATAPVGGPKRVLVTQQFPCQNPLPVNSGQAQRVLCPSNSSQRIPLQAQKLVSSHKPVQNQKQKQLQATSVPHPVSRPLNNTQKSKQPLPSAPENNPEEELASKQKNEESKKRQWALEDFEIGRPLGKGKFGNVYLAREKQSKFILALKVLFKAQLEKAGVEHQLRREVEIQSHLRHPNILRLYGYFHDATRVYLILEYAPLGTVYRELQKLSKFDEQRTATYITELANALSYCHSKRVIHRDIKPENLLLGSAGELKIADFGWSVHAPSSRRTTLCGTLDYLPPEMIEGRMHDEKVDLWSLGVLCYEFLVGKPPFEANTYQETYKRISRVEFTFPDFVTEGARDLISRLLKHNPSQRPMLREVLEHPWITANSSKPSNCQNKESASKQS
As to the kind of experiment: Flashplate Aurora A enzyme inhibition assay. It is filed as biochemical. The conditions noted are these: Flashplate assay; IC50 range; read-out: Aurora-A inhibition. The procedure, abridged: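 This is a radiometric Flashplate format: plates were precoated with DTT, and compound (in 2% DMSO) was mixed with kinase buffer (pH 7.5 Tris, MgCl2, NaCl) containing 1 mM MBP, 20 μM ATP and ^33P-ATP. The reaction was started with 250 ng Aurora-A per well and incubated 2 h at RT. It was then stopped by 10 mM sodium pyrophosphate washing, and plates were scintillation-counted.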

The subject of another experiment is HCT116 cells. As to the kind of experiment: Cell viability assay (MTT) in HCT116 cell line. In kind it is cell-based. The conditions noted are these: Homo sapiens, HCT-116, 72 hrs, IC50 range, read-out: HCT116 cell growth inhibition. The essentials:
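MTT read-out (4 hrs, 37 °C, DMSO extraction) following 72 hrs of treatment with 0-50 μM Aurora inhibitor. HCT116 cells were plated a day earlier and tested in triplicate; IC50 derived from the curve.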

`CN(C)c1ccc(-c2nc3c(N4CCN(CC(=O)N(C)c5nccs5)CC4)c(Br)cnc3[nH]2)cc1` [Example 89, 2-(4-(6-Bromo-2-(4-(dimethylamino)phenyl)-3H-imidazo[4,5-b]pyridin-7-yl)piperazin-1-yl)-N-methyl-N-(thiazol-2-yl)acetamide]: the IC50 on Aurora-A and in the experiment on HCT116 cells was less than 500 nM throughout.

As for `CN(C)c1ccc(-c2nc3c(N4CCC(CC(=O)Nc5nccs5)CC4)c(Br)cnc3[nH]2)cc1` [Example 90, 2-{1-[6-Bromo-2-(4-dimethylamino-phenyl)-3H-imidazo[4,5-b]pyridin-7-yl]-piperidin-4-yl}-N-thiazol-2-yl-acetamide], the IC50 was less than 500 nM on Aurora-A and 500 to 2000 nM in the experiment with HCT116 cells.

Take `NCc1cccc(-c2nc3c(N4CCN(Cc5cccnc5)CC4)c(Br)cnc3[nH]2)c1` [Example 92, (3-(6-Bromo-7-(4-(pyridin-3-ylmethyl)piperazin-1-yl)-3H-imidazo[4,5-b]pyridin-2-yl)phenyl)methanamine]: the values for the IC50 on Aurora-A and in the experiment with HCT116 cells were less than 500 nM and 500 to 2000 nM, respectively.

As to `COc1ccc(-c2nc3c(N4CCN(Cc5cccnc5)CC4)c(Br)cnc3[nH]2)cn1` [Example 94, 6-Bromo-2-(6-methoxypyridin-3-yl)-7-(4-(pyridin-3-ylmethyl)piperazin-1-yl)-3H-imidazo[4,5-b]pyridine], the IC50 was less than 500 nM at Aurora-A and 2000 to 50000 nM in the experiment on HCT116 cells.

Turning to `CC(c1ccncc1)N1CCN(c2c(Br)cnc3[nH]c(-c4cccc(CN5CCN(C)CC5)c4)nc23)CC1` (centres unmarked) [Example 95, 6-Bromo-2-(3-((4-methylpiperazin-1-yl)methyl)phenyl)-7-(4-(1-(pyridin-4-yl)ethyl)piperazin-1-yl)-3H-imidazo[4,5-b]pyridine], the results for the IC50 at Aurora-A and in the experiment on HCT116 cells were less than 500 nM and 500 to 2000 nM, respectively.

In the case of `CN1CCN(Cc2ccc(-c3nc4c(N5CCN(Cc6cccnc6)CC5)c(Br)cnc4[nH]3)cc2)CC1` [Example 96, 6-Bromo-2-(4-((4-methylpiperazin-1-yl)methyl)phenyl)-7-(4-(pyridin-3-ylmethyl)piperazin-1-yl)-3H-imidazo[4,5-b]pyridine], the figures for the IC50 on Aurora-A and with HCT116 cells were less than 500 nM and 500 to 2000 nM, respectively.

Turning to `CC(C)(C)OC(=O)NCCc1nc2c(N3CCN(Cc4cccnc4)CC3)c(Br)cnc2[nH]1` [Example 97, tert-Butyl 2-(6-bromo-7-(4-(pyridin-3-ylmethyl)piperazin-1-yl)-3H-imidazo[4,5-b]pyridin-2-yl)ethylcarbamate], the IC50 on Aurora-A was less than 500 nM; in the experiment on HCT116 cells it was 2000 to 50000 nM.

For the compound `NCCc1nc2c(N3CCN(Cc4cccnc4)CC3)c(Br)cnc2[nH]1` [Example 98, 2-(6-Bromo-7-(4-(pyridin-3-ylmethyl)piperazin-1-yl)-3H-imidazo[4,5-b]pyridin-2-yl)ethanamine], the results for the IC50 on Aurora-A and in the experiment on HCT116 cells were 2000 to 10000 nM and 2000 to 50000 nM, respectively.

Turning to `CC(C)(C)OC(=O)NCc1nc2c(N3CCN(Cc4cccnc4)CC3)c(Br)cnc2[nH]1` [Example 99, tert-Butyl (6-bromo-7-(4-(pyridin-3-ylmethyl)piperazin-1-yl)-3H-imidazo[4,5-b]pyridin-2-yl)methylcarbamate], the IC50 at Aurora-A fell in the range of 2000 to 10000 nM; with HCT116 cells, 2000 to 50000 nM.

As for `NCc1nc2c(N3CCN(Cc4cccnc4)CC3)c(Br)cnc2[nH]1` [Example 100, (6-Bromo-7-(4-(pyridin-3-ylmethyl)piperazin-1-yl)-3H-imidazo[4,5-b]pyridin-2-yl)methanamine], the results for the IC50 on Aurora-A and in the experiment with HCT116 cells were 2000 to 10000 nM and 2000 to 50000 nM, respectively.

As to `CN1CCN(c2ccc(-c3nc4c(N5CCN(Cc6cccnc6)CC5)c(Br)cnc4[nH]3)cc2)CC1` [Example 101, 6-Bromo-2-(4-(4-methylpiperazin-1-yl)phenyl)-7-(4-(pyridin-3-ylmethyl)piperazin-1-yl)-3H-imidazo[4,5-b]pyridine], the figures for the IC50 at Aurora-A and in the experiment on HCT116 cells were less than 500 nM and 500 to 2000 nM, respectively.

As to `Brc1cnc2[nH]c(-c3ccc(N4CCOCC4)cc3)nc2c1N1CCN(Cc2cccnc2)CC1` [Example 102, 4-(4-(6-Bromo-7-(4-(pyridin-3-ylmethyl)piperazin-1-yl)-3H-imidazo[4,5-b]pyridin-2-yl)phenyl)morpholine], the IC50 at Aurora-A and in the experiment with HCT116 cells was less than 500 nM throughout.

On to `Brc1cnc2[nH]c(-c3ccc(N4CCNCC4)cc3)nc2c1N1CCN(Cc2cccnc2)CC1` [Example 104, 6-Bromo-2-(4-(piperazin-1-yl)phenyl)-7-(4-(pyridin-3-ylmethyl)piperazin-1-yl)-3H-imidazo[4,5-b]pyridine], for which the IC50 at Aurora-A and in the experiment with HCT116 cells was less than 500 nM throughout.

Turning to `CC(C)(C)OC(=O)N1CCN(Cc2ccc(-c3nc4c(N5CCN(Cc6cccnc6)CC5)c(Br)cnc4[nH]3)cc2)CC1` [Example 105, tert-Butyl 4-(4-(6-bromo-7-(4-(pyridin-3-ylmethyl)piperazin-1-yl)-3H-imidazo[4,5-b]pyridin-2-yl)benzyl)piperazine-1-carboxylate], the IC50 is less than 500 nM on Aurora-A and 500 to 2000 nM in the experiment on HCT116 cells.

As for `Brc1cnc2[nH]c(-c3ccc(Cn4cccn4)cc3)nc2c1N1CCN(Cc2cccnc2)CC1` [Example 107, 2-(4-((1H-Pyrazol-1-yl)methyl)phenyl)-6-bromo-7-(4-(pyridin-3-ylmethyl)piperazin-1-yl)-3H-imidazo[4,5-b]pyridine], the IC50 at Aurora-A was less than 500 nM; with HCT116 cells it was 500 to 2000 nM.

On to `Brc1cnc2[nH]c(-c3ccc(-n4cccn4)cc3)nc2c1N1CCN(Cc2cccnc2)CC1` [Example 108, 2-(4-(1H-pyrazol-1-yl)phenyl)-6-bromo-7-(4-(pyridin-3-ylmethyl)piperazin-1-yl)-3H-imidazo[4,5-b]pyridine], for which the IC50 on Aurora-A is less than 500 nM; in the experiment with HCT116 cells it was 500 to 2000 nM.

As for `Brc1cnc2[nH]c(-c3ccc(-n4ccnc4)cc3)nc2c1N1CCN(Cc2cccnc2)CC1` [Example 109, 2-(4-(1H-Imidazol-1-yl)phenyl)-6-bromo-7-(4-(pyridin-3-ylmethyl)piperazin-1-yl)-3H-imidazo[4,5-b]pyridine], the IC50 at Aurora-A was less than 500 nM; with HCT116 cells, 500 to 2000 nM.

As for `Brc1cnc2[nH]c(-c3ccc(Cn4ccnc4)cc3)nc2c1N1CCN(Cc2cccnc2)CC1` [Example 110, 2-(4-((1H-Imidazol-1-yl)methyl)phenyl)-6-bromo-7-(4-(pyridin-3-ylmethyl)piperazin-1-yl)-3H-imidazo[4,5-b]pyridine], the IC50 on Aurora-A is less than 500 nM; with HCT116 cells it was 500 to 2000 nM.

As for `CN(C)CCOc1ccc(-c2nc3c(N4CCN(Cc5cccnc5)CC4)c(Br)cnc3[nH]2)cc1` [Example 111, 2-(4-(6-Bromo-7-(4-(pyridin-3-ylmethyl)piperazin-1-yl)-3H-imidazo[4,5-b]pyridin-2-yl)phenoxy)-N,N-dimethylethanamine], the IC50 at Aurora-A and in the experiment with HCT116 cells was less than 500 nM each time.

For the compound `Brc1cnc2[nH]c(-c3ccc(OCCN4CCOCC4)cc3)nc2c1N1CCN(Cc2cccnc2)CC1` [Example 112, 4-(2-(4-(6-Bromo-7-(4-(pyridin-3-ylmethyl)piperazin-1-yl)-3H-imidazo[4,5-b]pyridin-2-yl)phenoxy)ethyl)morpholine], the figures for the IC50 on Aurora-A and in the experiment with HCT116 cells were less than 500 nM and 500 to 2000 nM, respectively.

On to `Brc1cnc2[nH]c(-c3ccc(OC4CCNCC4)cc3)nc2c1N1CCN(Cc2cccnc2)CC1` [Example 113, 6-Bromo-2-(4-(piperidin-4-yloxy)phenyl)-7-(4-(pyridin-3-ylmethyl)piperazin-1-yl)-3H-imidazo[4,5-b]pyridine], for which the IC50 at Aurora-A and in the experiment with HCT116 cells was less than 500 nM each time.

As for `OC1CCN(c2ccc(-c3nc4c(N5CCN(Cc6cccnc6)CC5)c(Br)cnc4[nH]3)cc2)CC1` [Example 114, 1-(4-(6-Bromo-7-(4-(pyridin-3-ylmethyl)piperazin-1-yl)-3H-imidazo[4,5-b]pyridin-2-yl)phenyl)piperidin-4-ol], the IC50 at Aurora-A and in the experiment on HCT116 cells was less than 500 nM throughout.

In the case of `O=S1(=O)CCN(c2ccc(-c3nc4c(N5CCN(Cc6cccnc6)CC5)c(Br)cnc4[nH]3)cc2)CC1` [Example 115, 4-(4-(6-Bromo-7-(4-(pyridin-3-ylmethyl)piperazin-1-yl)-3H-imidazo[4,5-b]pyridin-2-yl)phenyl)-1,1-dioxothiomorpholine], the results for the IC50 at Aurora-A and in the experiment on HCT116 cells were less than 500 nM and 500 to 2000 nM, respectively.

Regarding `COc1ccc(-c2nc3c(N4CCN(Cc5ccc(OC)nc5)CC4)c(Br)cnc3[nH]2)cc1` [Example 116, 6-Bromo-2-(4-methoxyphenyl)-7-(4-((6-methoxypyridin-3-yl)methyl)piperazin-1-yl)-3H-imidazo[4,5-b]pyridine], the IC50 at Aurora-A was less than 500 nM; with HCT116 cells it was 500 to 2000 nM.

For the compound `COc1ccc(CN2CCN(c3c(Br)cnc4[nH]c(-c5ccc(CN6CCOCC6)cc5)nc34)CC2)cn1` [Example 117, 4-(4-(6-Bromo-7-(4-((6-methoxypyridin-3-yl)methyl)piperazin-1-yl)-3H-imidazo[4,5-b]pyridin-2-yl)benzyl)morpholine], the results for the IC50 at Aurora-A and in the experiment on HCT116 cells were less than 500 nM and 500 to 2000 nM, respectively.
